According to patent US5447716A, “Process for lightening the skin or treating pigmental blemishes using a composition containing benzomorpholine or 3,4-dihydro-2H-1,4-benzoxazine derivatives” (L'Oreal, priority 1993, dated 1995):

What was measured:
[1] = test system: fungal tyrosinase; assay: in vitro inhibition test of the activity of tyrosinase (dopachrome formation at 475 nm); format: biochemical; settings: inhibitor at 50 mol % with respect to tyrosine; L-dopa co-substrate; pH 6.5, 25° C.; lowering in maximum dopachrome (OD 475 nm at plateau) vs no inhibitor
Text: Some of the compounds of general formula (I) have been studied in comparison with an equivalent molar amount of hydroquinone in the in vitro inhibition test of the activity of tyrosinase.
According to this test, the amount of dopachrome formed during the chain of reactions of conversion of tyrosine to melanins is monitored by visible spectrometry at 475 nm. These reactions are catalyzed in vitro by fungal tyrosinase, in the presence of a reducing co-substrate (for example, a small amount of L-dopa) in order to initiate the hydroxylation reaction of L-tyrosine to L-dopa, which is then catalytically oxidized to dopaquinone and then to dopachrome, an intermediate product before the non-enzymatic oxidation reactions which result in the formation of melanins.
The concentration of dopachrome formed with time in the presence and in the absence of the inhibitor is thus measured.
The inhibitor concentrations are set at 50 mol % with respect to the concentration of tyrosine in the reaction medium.
The inhibition effect is expressed by the lowering in the maximum amount of dopachrome formed (optical density value at 475 nm read at the plateau of the curve) with respect to the amount obtained in the absence of inhibitor.
A--0.1M Phosphate buffer, pH=6.5 (1% Tween 20)
B--2·10^-3 M Mother solution of L-tyrosine in A
C--10^-4 M Mother solution of L-dopa in A
D--Mother solution of fungal tyrosinase in A containing 2,400 units/ml
E--10^-2 M Mother solution of the inhibitor in A (Solutions C and D are to be prepared on the day)
reference cell: 3 ml of A
homogenize and equilibrate at 25° C.
mix rapidly and observe the kinetics by measuring the absorbance at 475 nm as a function of time.

[2] = test system: melanocytes; settings: in words, background; cited from earlier work
[3] = in words, background; cited from earlier work

Row | Compound | % of inhibition [1] [%] | cytotoxicity for melanocytes [2] | irritation [3]
1 | Oc1ccc2c(c1)NCCO2 | -80 |  | 
2 | Oc1ccc2c(c1)OCCN2 | -71 |  | 
3 | Oc1ccc(O)cc1 [hydroquinone] | -33 | cytotoxic | particularly irritating
